# Assay results published in patent US5883243A, “Non-reducing saccharides, their preparations and uses” (Kabushiki Kaisha Hayashibara Seibutsu Kagaku Kenkyujo, priority 1997, dated 1999).
# Key:
# [1] = system: Eubacterium aerofaciens ATCC 25986; assay: Assimilation test by intestinal microorganism; assay type: cell-based; conditions: 0.5 w/v % saccharide in PYF broth, 37° C., 96 hours
# [2] = system: Lactobacillus fermentum IFO 3959; assay: Assimilation test by intestinal microorganism; assay type: cell-based; conditions: 0.5 w/v % saccharide in PYF broth, 37° C., 96 hours
# [3] = system: Bacteroides uniformis JCM 5828; assay: Assimilation test by intestinal microorganism; assay type: cell-based; conditions: 0.5 w/v % saccharide in PYF broth, 37° C., 96 hours
# [4] = system: Bifidobacterium infantis JCM 1222; assay: Assimilation test by intestinal microorganism; assay type: cell-based; conditions: 0.5 w/v % saccharide in PYF broth, 37° C., 96 hours
# [5] = system: Bifidobacterium bifidum JCM 1255; assay: Assimilation test by intestinal microorganism; assay type: cell-based; conditions: 0.5 w/v % saccharide in PYF broth, 37° C., 96 hours
# [6] = system: Bacteroides vulgatus JCM 5826; assay: Assimilation test by intestinal microorganism; assay type: cell-based; conditions: 0.5 w/v % saccharide in PYF broth, 37° C., 96 hours
# [7] = system: Streptococcus sobrinus ATCC 27351; assay: Acid formation by dental caries-inducing microorganisms; conditions: living wet cells, 0.02M saccharide, Stephen buffer pH 7.0, 37° C.; for pH at each fermentation time (min): 0: 0 min; for pH at each fermentation time (min): 5: 5 min; for pH at each fermentation time (min): 15: 15 min; for pH at each fermentation time (min): 30: 30 min; for pH at each fermentation time (min): 60: 60 min; for pH at each fermentation time (min): 90: 90 min
# [8] = system: Streptococcus faecalis IAM 10065; assay: Assimilation test by intestinal microorganism; assay type: cell-based; conditions: 0.5 w/v % saccharide in PYF broth, 37° C., 96 hours
# [9] = system: Bifidobacterium longum JCM 1217; assay: Assimilation test by intestinal microorganism; assay type: cell-based; conditions: 0.5 w/v % saccharide in PYF broth, 37° C., 96 hours
# [10] = system: Bifidobacterium adolescentis JCM 1275; assay: Assimilation test by intestinal microorganism; assay type: cell-based; conditions: 0.5 w/v % saccharide in PYF broth, 37° C., 96 hours
# [11] = system: Peptostreptococcus prevotii ATCC 9321; assay: Assimilation test by intestinal microorganism; assay type: cell-based; conditions: 0.5 w/v % saccharide in PYF broth, 37° C., 96 hours
# [12] = system: Bifidobacterium breve JCM 1192; assay: Assimilation test by intestinal microorganism; assay type: cell-based; conditions: 0.5 w/v % saccharide in PYF broth, 37° C., 96 hours
# [13] = system: Clostridium perfringens JCM 3816; assay type: cell-based; conditions: 0.5 w/v % saccharide in PYF broth, 37° C., 96 hours
# [14] = system: Lactobacillus plantarum IFO 3070; assay: Assimilation test by intestinal microorganism; assay type: cell-based; conditions: 0.5 w/v % saccharide in PYF broth, 37° C., 96 hours
# [15] = system: Clostridium sporogenes JCM 1416; assay: Assimilation test by intestinal microorganism; assay type: cell-based; conditions: 0.5 w/v % saccharide in PYF broth, 37° C., 96 hours, free of sugar: ±
# Protocol: To evaluate the growth rate of and to judge the assimilability by the microorganisms, the resultant broth was diluted 5-fold, and the turbidity of the dilution was measured at a wavelength of 750 nm in a 1-cm light-path cell. […] The criteria were in Table 3, and the results were in Tables 4 and 5: […]
# [16] = system: Bacteroides distasonis JCM 5825; assay: Assimilation test by intestinal microorganism; assay type: cell-based; conditions: 0.5 w/v % saccharide in PYF broth, 37° C., 96 hours
# [17] = system: Clostridium ramosum JCM 1298; assay: Assimilation test by intestinal microorganism; assay type: cell-based; conditions: 0.5 w/v % saccharide in PYF broth, 37° C., 96 hours
# [18] = system: Bifidobacterium animalis JCM 1190; assay: Assimilation test by intestinal microorganism; assay type: cell-based; conditions: 0.5 w/v % saccharide in PYF broth, 37° C., 96 hours
# [19] = system: Escherichia coli IFO 3301; assay: Assimilation test by intestinal microorganism; assay type: cell-based; conditions: 0.5 w/v % saccharide in PYF broth, 37° C., 96 hours
smiles,measurement,setting,value
"OC[C@H]1O[C@H](OC[C@H]2OC(O)[C@H](O)[C@@H](O)[C@@H]2O)[C@H](O)[C@@H](O)[C@@H]1O (stereo partly drawn) [Isomaltose, isomaltose, reference compound]",Judgement of assimilation (turbidity at a wavelength of 750 nm × 5),[1],+ (0.15 or higher but less than 0.2)
same,Judgement of assimilation (turbidity at a wavelength of 750 nm × 5),[2],- (Less than 0.1)
same,Judgement of assimilation (turbidity at a wavelength of 750 nm × 5),[3],- (Less than 0.1)
same,Judgement of assimilation (turbidity at a wavelength of 750 nm × 5),[4],+++ (0.3 or higher)
same,Judgement of assimilation (turbidity at a wavelength of 750 nm × 5),[5],+ (0.15 or higher but less than 0.2)
same,Judgement of assimilation (turbidity at a wavelength of 750 nm × 5),[6],- (Less than 0.1)
same,pH at each fermentation time (min): 0,[7],7.0
same,pH at each fermentation time (min): 5,[7],7.0
same,pH at each fermentation time (min): 15,[7],6.9
same,pH at each fermentation time (min): 30,[7],6.9
same,pH at each fermentation time (min): 60,[7],6.8
same,pH at each fermentation time (min): 90,[7],6.7
same,Judgement of assimilation (turbidity at a wavelength of 750 nm × 5),[8],+ (0.15 or higher but less than 0.2)
same,Judgement of assimilation (turbidity at a wavelength of 750 nm × 5),[9],++ (0.2 or higher but less than 0.3)
same,Judgement of assimilation (turbidity at a wavelength of 750 nm × 5),[10],+++ (0.3 or higher)
same,Judgement of assimilation (turbidity at a wavelength of 750 nm × 5),[11],- (Less than 0.1)
same,Judgement of assimilation (turbidity at a wavelength of 750 nm × 5),[12],+++ (0.3 or higher)
same,Judgement of assimilation (turbidity at a wavelength of 750 nm × 5),[13],± (0.1 or higher but less than 0.15)
same,Judgement of assimilation (turbidity at a wavelength of 750 nm × 5),[14],- (Less than 0.1)
same,Judgement of assimilation (turbidity at a wavelength of 750 nm × 5),[15],± (0.1 or higher but less than 0.15)
same,Judgement of assimilation (turbidity at a wavelength of 750 nm × 5),[16],+ (0.15 or higher but less than 0.2)
same,Judgement of assimilation (turbidity at a wavelength of 750 nm × 5),[17],- (Less than 0.1)
same,Judgement of assimilation (turbidity at a wavelength of 750 nm × 5),[18],+++ (0.3 or higher)
same,Judgement of assimilation (turbidity at a wavelength of 750 nm × 5),[19],- (Less than 0.1)
"OC[C@H]1O[C@@](CO)(O[C@H]2O[C@H](CO)[C@@H](O)[C@H](O)[C@H]2O)[C@@H](O)[C@@H]1O [Sucrose, sucrose, reference compound]",pH at each fermentation time (min): 0,[7],7.0
same,pH at each fermentation time (min): 5,[7],4.3
same,pH at each fermentation time (min): 15,[7],4.1
same,pH at each fermentation time (min): 30,[7],4.0
same,pH at each fermentation time (min): 60,[7],4.0
same,pH at each fermentation time (min): 90,[7],4.0
